Measured values reported in paper PMC2869451 (Journal of medicinal chemistry, 2009).

Molecular target: S-adenosylmethionine synthetase (MAT, cMAT) (Escherichia coli, UniProt P0A817)
Assay: […]-methionine incorporation into AdoMet with purified enzyme
Format: biochemical

Sequence of S-adenosylmethionine synthetase (MAT, cMAT) (P0A817 2-384): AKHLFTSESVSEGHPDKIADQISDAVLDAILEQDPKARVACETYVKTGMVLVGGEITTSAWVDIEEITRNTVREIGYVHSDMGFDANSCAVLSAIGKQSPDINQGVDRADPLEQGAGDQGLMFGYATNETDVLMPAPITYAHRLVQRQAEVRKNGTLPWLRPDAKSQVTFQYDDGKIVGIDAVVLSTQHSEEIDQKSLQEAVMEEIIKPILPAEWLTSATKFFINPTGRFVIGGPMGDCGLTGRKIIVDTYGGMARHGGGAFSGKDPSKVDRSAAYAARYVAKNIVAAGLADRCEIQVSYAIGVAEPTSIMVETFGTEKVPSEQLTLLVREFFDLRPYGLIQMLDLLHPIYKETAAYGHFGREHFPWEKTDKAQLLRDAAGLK

SMILES: CCOc1ccccc1NC(=O)NCC(=O)NNC(=O)Nc1cc([N+](=O)[O-])ccc1C [compound 1, 1-(3-(2-ethoxyphenyl)ureidoacetyl)-4-(2-methyl-5-nitrophenyl)semicarbazide]
- Ki: 1.9 ± 0.8 nM
